Reference: ChEMBL document CHEMBL1250451, “Mechanistic insights into a Ca2+-dependent family of alpha-mannosidases in a human gut symbiont” (Nat Chem Biol, 2010)

Key:
Type in all cases: protein assay
[1] = target: T1, Alpha-1,2-mannosidase (BT_2199) (Bacteroides thetaiotaomicron) (UniProt Q8A5N9); test: Activity of Bacteroides thetaiotaomicron GH92 alpha-mannosidase 2199 assessed as recovery of enzyme activity at 1 mM in presence of 7 mM Sr(2+) ions and in presence of 5 mM EGTA in 100 mM pH 7 MOPS buffer relative to enzyme activity in presence of calcium
T1 sequence (whole entry): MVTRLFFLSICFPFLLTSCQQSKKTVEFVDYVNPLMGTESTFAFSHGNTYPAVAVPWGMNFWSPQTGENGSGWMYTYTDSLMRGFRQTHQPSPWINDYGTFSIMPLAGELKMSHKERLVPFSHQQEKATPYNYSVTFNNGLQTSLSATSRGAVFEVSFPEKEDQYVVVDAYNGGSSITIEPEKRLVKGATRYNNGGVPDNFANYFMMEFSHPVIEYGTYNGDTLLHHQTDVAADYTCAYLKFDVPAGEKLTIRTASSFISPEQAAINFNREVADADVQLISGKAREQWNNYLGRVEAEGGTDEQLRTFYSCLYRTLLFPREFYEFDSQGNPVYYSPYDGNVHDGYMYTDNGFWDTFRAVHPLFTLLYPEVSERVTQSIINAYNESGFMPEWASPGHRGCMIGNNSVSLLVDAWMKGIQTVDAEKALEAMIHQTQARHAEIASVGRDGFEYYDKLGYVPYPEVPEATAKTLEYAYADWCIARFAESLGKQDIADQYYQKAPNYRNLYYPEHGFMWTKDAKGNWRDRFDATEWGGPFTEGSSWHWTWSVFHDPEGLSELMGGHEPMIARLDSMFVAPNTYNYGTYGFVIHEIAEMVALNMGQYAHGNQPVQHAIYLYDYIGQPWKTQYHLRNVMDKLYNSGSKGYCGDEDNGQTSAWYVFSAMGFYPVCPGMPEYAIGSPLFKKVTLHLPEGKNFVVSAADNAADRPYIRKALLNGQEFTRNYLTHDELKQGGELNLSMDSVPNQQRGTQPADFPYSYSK

[2] = target: T2, Alpha-1,2-mannosidase (BT_3990) (Bacteroides thetaiotaomicron) (UniProt Q8A0N1); test: Activity of Bacteroides thetaiotaomicron GH92 alpha-mannosidase 3990 assessed as recovery of enzyme activity at 1 mM in presence of 7 mM Co(2+) ions and in presence of 5 mM EDTA in 100 mM pH 7 MOPS buffer relative to enzyme activity in presence of calcium
T2 sequence (whole entry): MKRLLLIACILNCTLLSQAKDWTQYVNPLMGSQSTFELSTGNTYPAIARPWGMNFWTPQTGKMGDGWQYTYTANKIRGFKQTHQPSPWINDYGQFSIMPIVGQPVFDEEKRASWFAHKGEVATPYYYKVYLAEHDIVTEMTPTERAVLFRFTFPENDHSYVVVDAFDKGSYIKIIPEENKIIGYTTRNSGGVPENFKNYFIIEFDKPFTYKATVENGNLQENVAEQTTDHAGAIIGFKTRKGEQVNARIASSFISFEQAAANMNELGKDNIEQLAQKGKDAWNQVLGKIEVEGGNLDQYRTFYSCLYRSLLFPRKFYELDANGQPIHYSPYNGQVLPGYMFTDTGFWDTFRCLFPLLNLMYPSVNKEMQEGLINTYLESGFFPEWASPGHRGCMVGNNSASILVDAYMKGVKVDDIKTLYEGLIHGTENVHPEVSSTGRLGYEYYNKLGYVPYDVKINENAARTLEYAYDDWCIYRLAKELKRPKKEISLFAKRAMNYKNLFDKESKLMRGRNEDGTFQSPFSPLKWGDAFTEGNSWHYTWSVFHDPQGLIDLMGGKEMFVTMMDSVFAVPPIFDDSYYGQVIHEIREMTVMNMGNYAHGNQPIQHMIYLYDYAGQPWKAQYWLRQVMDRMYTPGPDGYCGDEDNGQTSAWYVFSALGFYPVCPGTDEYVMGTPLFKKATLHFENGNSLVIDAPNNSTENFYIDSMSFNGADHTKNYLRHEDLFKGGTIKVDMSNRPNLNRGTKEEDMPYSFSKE

[3] = target: T2, Alpha-1,2-mannosidase (BT_3990) (Bacteroides thetaiotaomicron); test: Activity of Bacteroides thetaiotaomicron GH92 alpha-mannosidase 3990 assessed as recovery of enzyme activity at 1 mM in presence of 7 mM Ti(3+) ions and in presence of 5 mM EDTA in 100 mM pH 7 MOPS buffer relative to enzyme activity in presence of calcium
[4] = target: T1, Alpha-1,2-mannosidase (BT_2199) (Bacteroides thetaiotaomicron); test: Activity of Bacteroides thetaiotaomicron GH92 alpha-mannosidase 2199 assessed as recovery of enzyme activity at 1 mM in presence of 7 mM Sr(2+) ions and in presence of 5 mM EDTA in 100 mM pH 7 MOPS buffer relative to enzyme activity in presence of calcium
[5] = target: T1, Alpha-1,2-mannosidase (BT_2199) (Bacteroides thetaiotaomicron); test: Activity of Bacteroides thetaiotaomicron GH92 alpha-mannosidase 2199 assessed as recovery of enzyme activity at 1 mM in presence of 7 mM Mn(2+) ions and in presence of 5 mM EGTA in 100 mM pH 7 MOPS buffer relative to enzyme activity in presence of calcium
[6] = target: T1, Alpha-1,2-mannosidase (BT_2199) (Bacteroides thetaiotaomicron); test: Activity of Bacteroides thetaiotaomicron GH92 alpha-mannosidase 2199 assessed as recovery of enzyme activity at 1 mM in presence of 7 mM Sc(3+) ions and in presence of 5 mM EGTA in 100 mM pH 7 MOPS buffer relative to enzyme activity in presence of calcium
[7] = target: T1, Alpha-1,2-mannosidase (BT_2199) (Bacteroides thetaiotaomicron); test: Activity of Bacteroides thetaiotaomicron GH92 alpha-mannosidase 2199 assessed as recovery of enzyme activity at 1 mM in presence of 7 mM Co(2+) ions and in presence of 5 mM EGTA in 100 mM pH 7 MOPS buffer relative to enzyme activity in presence of calcium
[8] = target: T1, Alpha-1,2-mannosidase (BT_2199) (Bacteroides thetaiotaomicron); test: Activity of Bacteroides thetaiotaomicron GH92 alpha-mannosidase 2199 assessed as recovery of enzyme activity at 1 mM in presence of 7 mM Zn(2+) ions and in presence of 5 mM EGTA in 100 mM pH 7 MOPS buffer relative to enzyme activity in presence of calcium
[9] = target: T2, Alpha-1,2-mannosidase (BT_3990) (Bacteroides thetaiotaomicron); test: Activity of Bacteroides thetaiotaomicron GH92 alpha-mannosidase 3990 assessed as recovery of enzyme activity at 1 mM in presence of 7 mM Be(2+) ions and in presence of 5 mM EGTA in 100 mM pH 7 MOPS buffer relative to enzyme activity in presence of calcium
[10] = target: T1, Alpha-1,2-mannosidase (BT_2199) (Bacteroides thetaiotaomicron); test: Activity of Bacteroides thetaiotaomicron GH92 alpha-mannosidase 2199 assessed as recovery of enzyme activity at 1 mM in absence of metal and in presence of 5 mM EDTA in 100 mM pH 7 MOPS buffer relative to enzyme activity in presence of calcium
[11] = target: T2, Alpha-1,2-mannosidase (BT_3990) (Bacteroides thetaiotaomicron); test: Activity of Bacteroides thetaiotaomicron GH92 alpha-mannosidase 3990 assessed as recovery of enzyme activity at 1 mM in absence of metal and in presence of 5 mM EGTA in 100 mM pH 7 MOPS buffer relative to enzyme activity in presence of calcium
[12] = target: T1, Alpha-1,2-mannosidase (BT_2199) (Bacteroides thetaiotaomicron); test: Activity of Bacteroides thetaiotaomicron GH92 alpha-mannosidase 2199 assessed as recovery of enzyme activity at 1 mM in presence of 7 mM Ca(2+) ions and in presence of 5 mM EDTA in 100 mM pH 7 MOPS buffer relative to enzyme activity in presence of calcium

O=[N+]([O-])c1ccc(O[C@H]2O[C@H](CO)[C@@H](O)[C@H](O)[C@@H]2O)cc1
Activity [1]: 30% | Activity [2]: 12% | Activity [3]: 0% | Activity [4]: 31% | Activity [5]: 6% | Activity [6]: 0% | Activity [7]: 12% | Activity [8]: 0% | Activity [9]: 0% | Activity [10]: 0% | Activity [11]: 0% | Activity [12]: 100%
